System in one data set: not listed separately
Put plainly: Half life in Sprague-Dawley rat at 3 mg/kg, iv measured by LC/MS analysis. Conditions: in vivo. Format: ADME, organism-based.
As for `CN1CCN(C(=O)c2cc3cc(Cl)ccc3[nH]2)CC1` [JNJ-7777120], the half-life was 48 min.

The target in another data set is T1, Cysteinyl leukotriene receptor 1 (Cavia porcellus, UniProt Q2NNR5).
T1 sequence (Q2NNR5 whole entry): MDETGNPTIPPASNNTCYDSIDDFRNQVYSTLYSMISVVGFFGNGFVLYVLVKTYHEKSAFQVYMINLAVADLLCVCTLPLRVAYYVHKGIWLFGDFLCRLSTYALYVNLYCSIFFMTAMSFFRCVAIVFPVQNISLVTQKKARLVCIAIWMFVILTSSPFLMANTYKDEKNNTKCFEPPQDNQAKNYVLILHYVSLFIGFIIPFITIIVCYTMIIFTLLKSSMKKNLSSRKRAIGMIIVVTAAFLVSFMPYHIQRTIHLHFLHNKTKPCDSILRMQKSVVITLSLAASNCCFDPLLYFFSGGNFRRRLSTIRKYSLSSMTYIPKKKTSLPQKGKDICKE
In words: Inhibition of guinea pig leukotriene D4.
Conditions: not given
`Cn1nccc1-c1ccc(Sc2ccc(C3(C(N)=O)CCOCC3)cc2)cc1` gave an IC50 of 229 nM. This counts as sub-micromolar.

Regarding `COC1(c2cc(F)cc(OCc3ccc4c(ccc(=O)n4C)c3)c2)CCOCC1` [ZD-2138], the concentration for half-maximal inhibition (IC50) was determined as 300 nM. The IC50 values of the last two compounds are within 1.5-fold of each other.

The target in the next data set is T2, Leukotriene C4 synthase (Homo sapiens, UniProt Q16873).
T2 sequence (Q16873 whole entry): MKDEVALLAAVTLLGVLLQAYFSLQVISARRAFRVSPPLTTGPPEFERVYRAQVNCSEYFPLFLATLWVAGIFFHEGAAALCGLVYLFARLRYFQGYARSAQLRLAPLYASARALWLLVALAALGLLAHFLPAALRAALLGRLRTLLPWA
In words: Inhibition of LTC4 (unknown origin).
Conditions: not given
On to `Oc1ccc(CCNC(=S)Nc2ccc(Br)cn2)cc1`, for which the IC50 was 5000 nM.

For `S=C(NCCc1c[nH]c2ccccc12)Nc1ccc(Cl)cn1`, the IC50 worked out at 5000 nM.

Regarding `Cc1cccc(NC(=S)NC(C)c2cccc3ccccc23)n1` (configuration not stated), half-maximal inhibition (IC50) required 1600 nM.

The compound `CCOC(=O)Cc1csc(NC(=S)NC(C)c2cccc3ccccc23)n1` (configuration not stated) showed an IC50 of 2 nM.

`Cc1ccc(NC(=S)NC(C)c2cccc3ccccc23)nc1` (configuration not stated) came in with an IC50 of 5 nM.

For the next data set, the target named is Histamine H4 receptor (Homo sapiens, UniProt Q9H3N8). Put plainly: Binding affinity to histamine H4 receptor (unknown origin) assessed as inhibition constant.
Sequence of Histamine H4 receptor (Q9H3N8 whole entry): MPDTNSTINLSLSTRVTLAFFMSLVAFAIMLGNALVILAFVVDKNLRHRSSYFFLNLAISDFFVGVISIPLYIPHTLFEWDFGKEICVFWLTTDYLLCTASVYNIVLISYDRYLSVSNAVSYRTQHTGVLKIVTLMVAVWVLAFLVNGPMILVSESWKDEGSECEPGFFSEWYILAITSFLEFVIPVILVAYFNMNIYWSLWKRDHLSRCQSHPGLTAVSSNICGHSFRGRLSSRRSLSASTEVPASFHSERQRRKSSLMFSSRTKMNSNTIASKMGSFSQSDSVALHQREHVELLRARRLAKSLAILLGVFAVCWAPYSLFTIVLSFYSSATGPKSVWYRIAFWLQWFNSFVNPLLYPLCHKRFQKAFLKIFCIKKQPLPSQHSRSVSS
Conditions: not given
On to `O=C(c1cc2ccccc2[nH]1)N1CCNCC1`, for which the Ki was 4.9 nM.

For `CN1CCN(C(=O)c2nc3cc(Cl)ccc3[nH]2)CC1`, the inhibition constant Ki worked out at 27 nM.

Take `CN1CCN(c2cc(-c3ccc(Cl)cc3)nc(N)n2)CC1`: the inhibition constant Ki was found to be 4.8 nM.

On to `Cc1cc(C)c2nc(-c3cnc(NCCCC4CCN(C)CC4)nc3C)[nH]c2c1` [TOREFORANT], for which the inhibitory constant (Ki) came to 8.4 nM.
